Assay results reported in US9809623B2, “α4β7 peptide monomer and dimer antagonists” (Protagonist Therapeutics, Inc., priority 2014, dated 2017).
Numbered stars: 1 amine (or outer) side, 2 acyl side, 3 side chain; on linkers, the order of the positions; unused ones are H or OH. Bridge positions count the residues as written; N and C are the ends. Square brackets hold non-standard residues; d marks the D form. Peptide text beside a SMILES is read from it. I, II: the chains in the order shown. * marks the point of attachment. Phe(4-tBu) = CC(C)(C)c1ccc(C[C@H](N)C(=O)O)cc1; Phe(2-CONH2) = NC(=O)c1ccccc1C[C@H](N)C(=O)O; Bip = N[C@@H](Cc1ccc(-c2ccccc2)cc1)C(=O)O; 2Nal = N[C@@H](Cc1ccc2ccccc2c1)C(=O)O; d2Nal = N[C@H](Cc1ccc2ccccc2c1)C(=O)O; Diglycolyl = O=C(COCC(=O)[*:2])[*:1]; NMeR = CN[C@@H](CCCNC(=N)N)C(=O)O; Myristoyl = CCCCCCCCCCCCCC(=O)*; β3hE = N[C@@H](CCC(=O)O)CC(=O)O; Pen = CC(C)(S)[C@H](N)C(=O)O; Dab = NCC[C@H](N)C(=O)O; Dap = NC[C@H](N)C(=O)O

Molecular target: α4β7 (Homo sapiens, UniProt P13612+P26010)
Assay: α4β7-MAdCAM Cell Adhesion Assay (RPMI 8866 human cells)
Format: cell-based
Parameters: host or cells: RPMI 8866 human B lymphoblastoid cells
Conditions: Table 3-B, Potency (α4β7); range classes; read-out: α4β7 cell (Hu) IC50
Description: RPMI 8866 human cells (Sigma #95041316) were cultured in RPMI 1640 HEPES medium (Invitrogen #22400-089) supplemented with 10% serum (Fetal Bovine Serum, Invitrogen #16140-071), 1 mM sodium pyruvate (Invitrogen #11360-070), 2 mM L-glutamine (Invitrogen #25030-081) and Penicillin-Streptomycin (Invitrogen #15140-122) at 100 units of penicillin and 100 μg of streptomycin per ml. The cells were washed two times in DMEM medium (ATCC #30-2002) supplemented with 0.1% BSA, 10 mM HEPES pH 7 and 1 mM MnCl2. The cells were re-suspended in supplemented DMEM medium at a density of 4×10^6 cells/ml.
A Nunc MaxiSorp plate was coated with rh MAdCAM-1/Fc Chimera (R&D #6065-MC) at 200 ng per well in 50 ul per well in 1×PBS and incubated at 4° C. overnight. The solution was then removed by shaking, blocked with 250 ul per well PBS containing 1% BSA, and incubated at 37° C. for 1 hr. The solution was removed by shaking. Peptides were diluted by serial dilution in a final volume of 50 ul per well (2× concentration). To each well, 50 ul of cells (200,000 cells) were added and the plate was incubated at 37° C., 5% CO2 for 30-45 min to allow cell adhesion. The wells were washed manually three times (100 ul per wash) with supplemented DMEM. After the final wash, 100 ul/well of supplemented DMEM and 10 ul/well of MTT reagent (ATTC cat#30-1010K) were added. The plate was incubated at 37° C., 5% CO2 for 2-3 hrs until a purple precipitate was visible. 100 ul of Detergent Reagent (ATTC cat#30-1010K) was added to each well. The plate was covered from the light, wrapped in Parafilm to prevent evaporation, and left overnight at room temperature in the dark. The plate was shaken for 5 min and the absorbance at 570 nm was measured. To calculate the dose response, the absorbance value of control wells not containing cells was subtracted from each test well.

α4β7, sequence (P13612 34-1032): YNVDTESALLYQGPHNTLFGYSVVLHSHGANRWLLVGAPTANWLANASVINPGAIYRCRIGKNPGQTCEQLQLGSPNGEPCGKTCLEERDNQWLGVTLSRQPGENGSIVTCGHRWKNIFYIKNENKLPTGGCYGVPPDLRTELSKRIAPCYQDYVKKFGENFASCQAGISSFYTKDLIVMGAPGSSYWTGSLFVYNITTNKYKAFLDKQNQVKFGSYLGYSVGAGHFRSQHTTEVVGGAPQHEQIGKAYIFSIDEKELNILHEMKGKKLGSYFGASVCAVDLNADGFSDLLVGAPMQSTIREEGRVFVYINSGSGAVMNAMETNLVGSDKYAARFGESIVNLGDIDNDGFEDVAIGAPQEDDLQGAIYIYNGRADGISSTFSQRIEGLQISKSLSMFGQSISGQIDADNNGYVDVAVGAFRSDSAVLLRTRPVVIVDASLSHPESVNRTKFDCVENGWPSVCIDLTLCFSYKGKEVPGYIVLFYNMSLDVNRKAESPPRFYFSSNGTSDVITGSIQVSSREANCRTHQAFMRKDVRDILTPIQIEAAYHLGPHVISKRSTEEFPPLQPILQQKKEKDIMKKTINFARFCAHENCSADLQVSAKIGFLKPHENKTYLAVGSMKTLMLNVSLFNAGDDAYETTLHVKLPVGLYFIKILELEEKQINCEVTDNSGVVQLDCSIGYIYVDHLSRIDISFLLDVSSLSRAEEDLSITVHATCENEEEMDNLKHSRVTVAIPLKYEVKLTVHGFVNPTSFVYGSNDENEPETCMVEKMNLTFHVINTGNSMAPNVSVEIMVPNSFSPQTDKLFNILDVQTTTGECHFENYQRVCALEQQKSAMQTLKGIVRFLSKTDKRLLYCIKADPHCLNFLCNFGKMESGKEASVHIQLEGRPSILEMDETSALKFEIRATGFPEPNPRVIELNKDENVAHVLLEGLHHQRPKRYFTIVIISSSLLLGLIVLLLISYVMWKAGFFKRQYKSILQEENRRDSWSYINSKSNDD
α4β7, sequence (P26010 20-798): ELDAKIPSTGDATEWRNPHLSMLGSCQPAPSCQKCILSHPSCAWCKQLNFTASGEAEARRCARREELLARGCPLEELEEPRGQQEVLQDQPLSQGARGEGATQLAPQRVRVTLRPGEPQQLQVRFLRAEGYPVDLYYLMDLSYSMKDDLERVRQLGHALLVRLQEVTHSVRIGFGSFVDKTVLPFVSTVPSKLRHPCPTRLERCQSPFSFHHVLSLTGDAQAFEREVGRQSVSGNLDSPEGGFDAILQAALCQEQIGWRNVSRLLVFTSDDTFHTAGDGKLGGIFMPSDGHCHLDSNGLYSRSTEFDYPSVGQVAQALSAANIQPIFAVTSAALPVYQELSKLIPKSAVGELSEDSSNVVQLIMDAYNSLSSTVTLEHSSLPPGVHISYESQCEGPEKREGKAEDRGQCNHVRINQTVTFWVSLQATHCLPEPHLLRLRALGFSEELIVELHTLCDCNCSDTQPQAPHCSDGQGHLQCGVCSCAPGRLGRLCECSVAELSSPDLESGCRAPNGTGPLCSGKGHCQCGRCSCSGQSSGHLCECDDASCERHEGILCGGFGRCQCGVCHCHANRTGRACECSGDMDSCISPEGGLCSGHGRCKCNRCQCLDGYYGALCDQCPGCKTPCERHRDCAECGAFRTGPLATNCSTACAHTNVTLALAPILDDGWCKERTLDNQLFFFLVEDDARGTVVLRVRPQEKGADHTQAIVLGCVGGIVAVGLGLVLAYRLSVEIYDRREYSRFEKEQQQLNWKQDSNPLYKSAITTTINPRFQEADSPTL

Compound | IC50
CC(=O)N[C@@H]1C(=O)N(C)[C@@H](CCCNC(=N)N)C(=O)N[C@@H](CO)C(=O)N[C@@H](CC(=O)O)C(=O)N[C@@H]([C@@H](C)O)C(=O)N[C@@H](CC(C)C)C(=O)N[C@H](C(=O)N[C@@H](Cc2c[nH]c3ccccc23)C(=O)N[C@@H](CCC(=O)O)C(=O)N[C@@H](CN)C(N)=O)C(C)(C)SSC1(C)C [compound 59] (Ac-[Pen][NMeR]SDTL[Pen]WE[Dap]-NH2; disulfide 1-7) | 10000 to 100000 nM
CC(=O)N[C@@H]1C(=O)N(C)[C@@H](CCCNC(=N)N)C(=O)N[C@@H](CO)C(=O)N[C@@H](CC(=O)O)C(=O)N[C@@H]([C@@H](C)O)C(=O)N[C@@H](CC(C)C)C(=O)N[C@H](C(=O)N[C@@H](Cc2c[nH]c3ccccc23)C(=O)N2CCC[C@@H]2C(=O)N[C@@H](CCCCNC(=O)COCC(=O)NCCCC[C@H](NC(=O)[C@H]2CCCN2C(=O)[C@H](Cc2c[nH]c3ccccc23)NC(=O)[C@H]2NC(=O)[C@H](CC(C)C)NC(=O)[C@H]([C@@H](C)O)NC(=O)[C@H](CC(=O)O)NC(=O)[C@H](CO)NC(=O)[C@H](CCCNC(=N)N)N(C)C(=O)[C@@H](NC(C)=O)C(C)(C)SSC2(C)C)C(N)=O)C(N)=O)C(C)(C)SSC1(C)C [compound 96] (I: Ac-[Pen][NMeR]SDTL[Pen]W[dP]K-NH2 / II: Ac-[Pen][NMeR]SDTL[Pen]W[dP]K-NH2; disulfide I:1-I:7, II:1-II:7; linker I:10-II:10 via Diglycolyl) | 50 to 100 nM
CC(=O)N[C@@H]1C(=O)N(C)[C@@H](CCCNC(=N)N)C(=O)N[C@@H](CO)C(=O)N[C@@H](CC(=O)O)C(=O)N[C@@H]([C@@H](C)O)C(=O)N[C@@H](CC(C)C)C(=O)N[C@H](C(=O)N[C@@H](Cc2ccc(-c3ccccc3)cc2)C(=O)N[C@H](CCC(=O)O)C(=O)N[C@H](CCCCNC(=O)COCC(=O)NCCCC[C@@H](NC(=O)[C@@H](CCC(=O)O)NC(=O)[C@H](Cc2ccc(-c3ccccc3)cc2)NC(=O)[C@H]2NC(=O)[C@H](CC(C)C)NC(=O)[C@H]([C@@H](C)O)NC(=O)[C@H](CC(=O)O)NC(=O)[C@H](CO)NC(=O)[C@H](CCCNC(=N)N)N(C)C(=O)[C@@H](NC(C)=O)C(C)(C)SSC2(C)C)C(N)=O)C(N)=O)C(C)(C)SSC1(C)C [compound 108] (I: Ac-[Pen][NMeR]SDTL[Pen][Bip][dE][dK]-NH2 / II: Ac-[Pen][NMeR]SDTL[Pen][Bip][dE][dK]-NH2; disulfide I:1-I:7, II:1-II:7; linker I:10-II:10 via Diglycolyl) | 10 to 25 nM
CCCCCCCCCCCCCC(=O)N[C@@H]1C(=O)N(C)[C@@H](CCCNC(=N)N)C(=O)N[C@@H](CO)C(=O)N[C@@H](CC(=O)O)C(=O)N[C@@H]([C@@H](C)O)C(=O)N[C@@H](CC(C)C)C(=O)N[C@H](C(=O)N[C@@H](Cc2ccc(C(C)(C)C)cc2)C(=O)N[C@@H](CCC(=O)O)CC(=O)N[C@H](CCCCN)C(N)=O)C(C)(C)SSC1(C)C [compound 181] (Myristoyl-[Pen][NMeR]SDTL[Pen][Phe(4-tBu)][β3hE][dK]-NH2; disulfide 1-7) | 1000 to 10000 nM
CC(=O)N[C@@H]1C(=O)N(C)[C@@H](CCCNC(=N)N)C(=O)N[C@@H](CO)C(=O)N[C@@H](CC(=O)O)C(=O)N[C@@H]([C@@H](C)O)C(=O)N[C@@H](CC(C)C)C(=O)N[C@H](C(=O)N[C@@H](Cc2c[nH]c3ccccc23)C(=O)N2CCC[C@H]2C(=O)N[C@H](CCCCNC(=O)COCC(=O)NCCCC[C@@H](NC(=O)[C@@H]2CCCN2C(=O)[C@H](Cc2c[nH]c3ccccc23)NC(=O)[C@H]2NC(=O)[C@H](CC(C)C)NC(=O)[C@H]([C@@H](C)O)NC(=O)[C@H](CC(=O)O)NC(=O)[C@H](CO)NC(=O)[C@H](CCCNC(=N)N)N(C)C(=O)[C@@H](NC(C)=O)C(C)(C)SSC2(C)C)C(N)=O)C(N)=O)C(C)(C)SSC1(C)C [compound 94] (I: Ac-[Pen][NMeR]SDTL[Pen]WP[dK]-NH2 / II: Ac-[Pen][NMeR]SDTL[Pen]WP[dK]-NH2; disulfide I:1-I:7, II:1-II:7; linker I:10-II:10 via Diglycolyl) | 100 to 500 nM
CC(=O)N[C@@H]1C(=O)N(C)[C@@H](CCCNC(=N)N)C(=O)N[C@@H](CO)C(=O)N[C@@H](CC(=O)O)C(=O)N[C@@H]([C@@H](C)O)C(=O)N[C@@H](Cc2ccccc2)C(=O)N[C@H](C(=O)N[C@@H](Cc2ccc3ccccc3c2)C(=O)N[C@H](CCC(=O)O)C(N)=O)C(C)(C)SSC1(C)C [compound 162] (Ac-[Pen][NMeR]SDTF[Pen][2Nal][dE]-NH2; disulfide 1-7) | 1000 to 10000 nM
CC(=O)N[C@@H]1C(=O)N(C)[C@@H](CCCNC(=N)N)C(=O)N[C@@H](CO)C(=O)N[C@@H](CC(=O)O)C(=O)N[C@@H]([C@@H](C)O)C(=O)N[C@@H](CC(C)C)C(=O)N[C@H](C(=O)N[C@@H](Cc2c[nH]c3ccccc23)C(=O)N[C@@H](CCC(=O)O)C(=O)N[C@@H](CCN)C(N)=O)C(C)(C)SSC1(C)C [compound 61] (Ac-[Pen][NMeR]SDTL[Pen]WE[Dab]-NH2; disulfide 1-7) | 1000 to 10000 nM
CC(=O)N[C@@H]1C(=O)N(C)[C@@H](CCCNC(=N)N)C(=O)N[C@@H](CO)C(=O)N[C@@H](CC(=O)O)C(=O)N[C@@H]([C@@H](C)O)C(=O)N[C@@H](CC(C)C)C(=O)N[C@H](C(=O)N[C@@H](Cc2ccccc2C(N)=O)C(=O)N[C@H](CCC(=O)O)C(=O)N[C@H](CCCCNC(=O)COCC(=O)NCCCC[C@@H](NC(=O)[C@@H](CCC(=O)O)NC(=O)[C@H](Cc2ccccc2C(N)=O)NC(=O)[C@H]2NC(=O)[C@H](CC(C)C)NC(=O)[C@H]([C@@H](C)O)NC(=O)[C@H](CC(=O)O)NC(=O)[C@H](CO)NC(=O)[C@H](CCCNC(=N)N)N(C)C(=O)[C@@H](NC(C)=O)C(C)(C)SSC2(C)C)C(N)=O)C(N)=O)C(C)(C)SSC1(C)C [compound 98] (I: Ac-[Pen][NMeR]SDTL[Pen][Phe(2-CONH2)][dE][dK]-NH2 / II: Ac-[Pen][NMeR]SDTL[Pen][Phe(2-CONH2)][dE][dK]-NH2; disulfide I:1-I:7, II:1-II:7; linker I:10-II:10 via Diglycolyl) | 50 to 100 nM
CC(=O)N[C@@H]1C(=O)N(C)[C@@H](CCCNC(=N)N)C(=O)N[C@@H](CO)C(=O)N[C@@H](CC(=O)O)C(=O)N[C@@H]([C@@H](C)O)C(=O)N[C@@H](CC(C)C)C(=O)N[C@H](C(=O)N[C@@H](Cc2c[nH]c3ccccc23)C(=O)N[C@H](Cc2c[nH]c3ccccc23)C(=O)N[C@H](CCCCNC(=O)COCC(=O)NCCCC[C@@H](NC(=O)[C@@H](Cc2c[nH]c3ccccc23)NC(=O)[C@H](Cc2c[nH]c3ccccc23)NC(=O)[C@H]2NC(=O)[C@H](CC(C)C)NC(=O)[C@H]([C@@H](C)O)NC(=O)[C@H](CC(=O)O)NC(=O)[C@H](CO)NC(=O)[C@H](CCCNC(=N)N)N(C)C(=O)[C@@H](NC(C)=O)C(C)(C)SSC2(C)C)C(N)=O)C(N)=O)C(C)(C)SSC1(C)C [compound 110] (I: Ac-[Pen][NMeR]SDTL[Pen]W[dW][dK]-NH2 / II: Ac-[Pen][NMeR]SDTL[Pen]W[dW][dK]-NH2; disulfide I:1-I:7, II:1-II:7; linker I:10-II:10 via Diglycolyl) | 10 to 25 nM
CC(=O)N[C@@H]1C(=O)N(C)[C@@H](CCCNC(=N)N)C(=O)N[C@@H](CO)C(=O)N[C@@H](CC(=O)O)C(=O)N[C@@H](Cc2ccccc2)C(=O)N[C@@H](CC(C)C)C(=O)N[C@H](C(=O)N[C@@H](Cc2ccc3ccccc3c2)C(=O)N[C@H](CCC(=O)O)C(N)=O)C(C)(C)SSC1(C)C [compound 157] (Ac-[Pen][NMeR]SDFL[Pen][2Nal][dE]-NH2; disulfide 1-7) | 1000 to 10000 nM
CC(=O)N[C@@H]1C(=O)N(C)[C@@H](CCCNC(=N)N)C(=O)N[C@@H](CO)C(=O)N[C@@H](CC(=O)O)C(=O)N[C@@H](CC(C)C)C(=O)N[C@@H](CC(C)C)C(=O)N[C@H](C(=O)N[C@@H](Cc2ccc3ccccc3c2)C(=O)N[C@H](CCC(=O)O)C(N)=O)C(C)(C)SSC1(C)C [compound 159] (Ac-[Pen][NMeR]SDLL[Pen][2Nal][dE]-NH2; disulfide 1-7) | 1000 to 10000 nM
CC(=O)N[C@@H]1C(=O)N(C)[C@@H](CCCNC(=N)N)C(=O)N[C@@H](CO)C(=O)N[C@@H](CC(=O)O)C(=O)N[C@@H]([C@@H](C)O)C(=O)N[C@@H](CC(C)C)C(=O)N[C@H](C(=O)N[C@H](Cc2ccc3ccccc3c2)C(=O)N[C@@H](CCC(=O)O)C(=O)N[C@H](CCCCNC(=O)COCC(=O)NCCCC[C@@H](NC(=O)[C@H](CCC(=O)O)NC(=O)[C@@H](Cc2ccc3ccccc3c2)NC(=O)[C@H]2NC(=O)[C@H](CC(C)C)NC(=O)[C@H]([C@@H](C)O)NC(=O)[C@H](CC(=O)O)NC(=O)[C@H](CO)NC(=O)[C@H](CCCNC(=N)N)N(C)C(=O)[C@@H](NC(C)=O)C(C)(C)SSC2(C)C)C(N)=O)C(N)=O)C(C)(C)SSC1(C)C [compound 35] (I: Ac-[Pen][NMeR]SDTL[Pen][d2Nal]E[dK]-NH2 / II: Ac-[Pen][NMeR]SDTL[Pen][d2Nal]E[dK]-NH2; disulfide I:1-I:7, II:1-II:7; linker I:10-II:10 via Diglycolyl) | 100 to 500 nM
